Data reported in the supplement of paper PMC11061612.

What was measured:
Assay in all cases: combination Emax (second highest fraction inhibited in the dose matrix, 72 h); higher = more inhibition; extreme values may be limits of the assay
[1] = system: SAT (Head and Neck Carcinoma)
Outline: (§1)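 Cell lines in DMEM/F12 or RPMI with 10% FBS were plated in 1536-well plates, held 24 hours at 37°C, 5% CO2, then given two-drug dose matrices for 72 hours (DMSO typically 0.2%). Viability was read by CellTiter-Glo 2.0 luminescence and scaled as inhibition from 0 (vehicle wells) to 1 (blank wells). Combination Emax is the second-highest inhibition in the matrix; Bliss excess is observed combination effect minus expected EA + EB − EA·EB, EA and EB being single-agent effects.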

IST-MEL1 (Melanoma) = system: IST-MEL1 (Melanoma)
Outline: as §1

[2] = system: SiHa (Cervical Carcinoma)
Outline: as §1

[3] = system: LCLC-103H (Non-Small Cell Lung Carcinoma)
Outline: as §1

[4] = system: SUP-M2 (T-Cell Non-Hodgkin's Lymphoma)
Outline: as §1

[5] = system: SKG-IIIa (Cervical Carcinoma)
Outline: as §1

[6] = system: NCI-H596 (Other Solid Carcinomas)
Outline: as §1

[7] = system: IA-LM (Non-Small Cell Lung Carcinoma)
Outline: as §1

[8] = system: COR-L88 (Small Cell Lung Carcinoma)
Outline: as §1

AM-38 (Glioblastoma) = system: AM-38 (Glioblastoma)
Outline: as §1

[9] = system: NCI-H1876 (Small Cell Lung Carcinoma)
Outline: as §1

GAK (Melanoma) = system: GAK (Melanoma)
Outline: as §1

[10] = system: NCI-H1341 (Small Cell Lung Carcinoma)
Outline: as §1

[11] = system: RCC-JW (Kidney Carcinoma)
Outline: as §1

NCI-H2373 (Mesothelioma) = system: NCI-H2373 (Mesothelioma)
Outline: as §1

[12] = system: CL-11 (Colorectal Carcinoma)
Outline: as §1

ES6 (Ewing's Sarcoma) = system: ES6 (Ewing's Sarcoma)
Outline: as §1

[13] = system: LS-1034 (Colorectal Carcinoma)
Outline: as §1

[14] = system: C-33-A (Cervical Carcinoma)
Outline: as §1

[15] = system: P30-OHK (B-Lymphoblastic Leukemia)
Outline: as §1

Row | Structure (SMILES) | combination Emax [1] | combination Emax (IST-MEL1 (Melanoma)) | combination Emax [2] | combination Emax [3] | combination Emax [4] | combination Emax [5] | combination Emax [6] | combination Emax [7] | combination Emax [8] | combination Emax (AM-38 (Glioblastoma)) | combination Emax [9] | combination Emax (GAK (Melanoma)) | combination Emax [10] | combination Emax [11] | combination Emax (NCI-H2373 (Mesothelioma)) | combination Emax [12] | combination Emax (ES6 (Ewing's Sarcoma)) | combination Emax [13] | combination Emax [14] | combination Emax [15]
1 | CC1(C)CCC(CN2CCN(c3ccc(C(=O)NS(=O)(=O)c4ccc(NCC5CCOCC5)c([N+](=O)[O-])c4)c(Oc4cnc5[nH]ccc5c4)c3)CC2)=C(c2ccc(Cl)cc2)C1 [Venetoclax] + COc1cc(Nc2ncc3c(n2)-c2ccc(Cl)cc2C(c2c(F)cccc2OC)=NC3)ccc1C(=O)O [Alisertib] (first compound max 1 µM, 7x7, partner max 10 µM) | 0.545 | 0.574 | 0.212 | 0.539 | 0.902 | 0.286 | 0.381 | 0.617 | 0.727 | 0.41 | 0.866 | 0.147 | 0.968 | 0.286 | 0.253 | 0.673 | 0.277 | 0.227 | 0.446 | 1
2 | CC1(C)CCC(CN2CCN(c3ccc(C(=O)NS(=O)(=O)c4ccc(NCC5CCOCC5)c([N+](=O)[O-])c4)c(Oc4cnc5[nH]ccc5c4)c3)CC2)=C(c2ccc(Cl)cc2)C1 [Venetoclax] + C[C@@H]1COCCN1C2=NC(=NC(=C2)C3(CC3)[S@](=N)(=O)C)C4=C5C=CNC5=NC=C4 [AZD6738] (first compound max 1 µM, 7x7, partner max 10 µM) | 0.423 | 0.823 | 0.286 | 0.55 | 0.979 | 0.368 | 0.371 | 0.435 | 0.769 | 0.732 | 0.942 | 0.528 | 0.757 | 0.469 | 0.591 | 0.681 | 0.571 | 0.624 | 0.92 | 1
3 | CC1(C)CCC(CN2CCN(c3ccc(C(=O)NS(=O)(=O)c4ccc(NCC5CCOCC5)c([N+](=O)[O-])c4)c(Oc4cnc5[nH]ccc5c4)c3)CC2)=C(c2ccc(Cl)cc2)C1 [Venetoclax] + C[C@@H](Nc1cc(F)cc(F)c1)c1cc(C(=O)N(C)C)cc2c(=O)cc(N3CCOCC3)oc12 [AZD8186] (first compound max 1 µM, 7x7, partner max 3 µM) | 0.345 | 0.336 | 0.243 | 0.253 | 0.344 | 0.168 | 0.241 | 0.0865 | 0.617 | 0.157 | 0.182 | 0.242 | 0.583 | 0.293 | 0.216 | 0.083 | 0.198 | 0.0835 | 0.154 | 0.794
4 | CC1(C)CCC(CN2CCN(c3ccc(C(=O)NS(=O)(=O)c4ccc(NCC5CCOCC5)c([N+](=O)[O-])c4)c(Oc4cnc5[nH]ccc5c4)c3)CC2)=C(c2ccc(Cl)cc2)C1 [Venetoclax] + Cc1cc2ncnn2cc1Nc1ncc2c(n1)n(C1CCOCC1)c(=O)n2C [AZD7648] (first compound max 1 µM, 7x7, partner max 10 µM) | 0.284 | 0.41 | 0.18 | 0.282 | 0.283 | 0.24 | 0.226 | 0.261 | 0.515 | 0.318 | 0.274 | 0.204 | 0.444 | 0.151 | 0.39 | 0.157 | 0.37 | 0.0935 | 0.401 | 0.569
5 | CC1(C)CCC(CN2CCN(c3ccc(C(=O)NS(=O)(=O)c4ccc(NCC5CCOCC5)c([N+](=O)[O-])c4)c(Oc4cnc5[nH]ccc5c4)c3)CC2)=C(c2ccc(Cl)cc2)C1 [Venetoclax] + Cn1cnc2c(F)c(Nc3ccc(Br)cc3Cl)c(C(=O)NOCCO)cc21 [Selumetinib] (first compound max 1 µM, 7x7, partner max 3 µM) | 0.566 | 0.415 | 0.16 | 0.115 | 0.366 | 0.127 | 0.222 | 0.175 | 0.543 | 0.498 | 0.205 | 0.731 | 0.432 | 0.144 | 0.295 | 0.528 | 0.162 | 0.537 | 0.324 | 0.303
